Values quoted from earlier work, collected in US9107837B2, “Sustained release formulation of naltrexone” (Orexigen Therapeutics, Inc., priority 2006, dated 2015).

Settings: open label, approximately 570 individuals with alcoholism

O=C1CC[C@@]2(O)[C@H]3Cc4ccc(O)c5c4[C@@]2(CCN3CC2CC2)[C@H]1O5 [naltrexone, 17-(cyclopropylmethyl)-4,5α-epoxy-3,14-dihydroxymorphinan-6-one]
New-onset adverse reaction: anxiety: 2%
New-onset adverse reaction: dizziness: 4%
New-onset adverse reaction: fatigue: 4%
New-onset adverse reaction: headache: 7%
New-onset adverse reaction: insomnia: 3%
New-onset adverse reaction: nausea: 10%
New-onset adverse reaction: nervousness: 4%
New-onset adverse reaction: somnolence: 2%
New-onset adverse reaction: vomiting: 3%
